Source: patent US7038084B2, “Succinoylamino hydroxyethylamino sulfonamides useful as retroviral protease inhibitors” (G.D. Searle & Co., priority 1992, dated 2006)
Read-outs that look alike come from different tables or passages of the source.

Key:
HIV protease = target: T1, HIV protease (Human immunodeficiency virus type 1 group M subtype B, UniProt P04585); test: HIV protease enzyme assay (fluorogenic substrate 2-aminobenzoyl-Ile-Nle-Phe(p-NO2)-Gln-ArgNH2); assay type: biochemical
T1 construct: HIV protease is diluted in the assay buffer to a final enzyme concentration of 12.3 nanomolar, based on a molecular weight of 10,780
From the text: The compounds of the present invention are effective HIV protease inhibitors. Utilizing an enzyme assay as described below, the compounds set forth in the examples herein disclosed inhibited the HIV enzyme. The preferred compounds of the present invention and their calculated IC50 (inhibiting concentration 50%, i.e., the concentration at which the inhibitor compound reduces enzyme activity by 50%) values are shown in Table 8. The enzyme method is described below. The substrate is 2-aminobenzoyl-Ile-Nle-Phe(p-NO2)-Gln-ArgNH2. The positive control is MVT-101 (Miller, M. et al, Science, 246, 1149 (1989)] The assay conditions are as follows:
The above described substrate is dissolved in DMSO, then diluted 10 fold in assay buffer. Final substrate concentration in the assay is 80 μM.
HIV protease is diluted in the assay buffer to a final enzyme concentration of 12.3 nanomolar, based on a molecular weight of 10,780.
The final concentration of DMSO is 14% and the final concentration of glycerol is 18%. The test compound is dissolved in DMSO and diluted in DMSO to 10× the test concentration; 10 μl of the enzyme preparation is added, the materials mixed and then the mixture is incubated at ambient temperature for 15 minutes. The enzyme reaction is initiated by the addition of 40 μl of substrate. The increase in fluorescence is monitored at 4 time points (0, 8, 16 and 24 minutes) at ambient temperature. Each assay is carried out in duplicate wells.

HIV-1 = test: HIV inhibition assay of acutely infected CEM cells (MTT); assay type: cell-based
Experimental: (§1) The HIV inhibition assay method of acutely infected cells is an automated tetrazolium based calorimetric assay essentially that reported by Pauses et al, J. Virol. Methods 20, 309–321 (1988). Assays were performed in 96-well tissue culture plates. CEM cells, a CD4^+ cell line, were grown in RPMI-1640 medium (Gibco) supplemented with a 10% fetal calf serum and were then treated with polybrene (2 μg/ml). An 80 μl volume of medium containing 1×10^4 cells was dispensed into each well of the tissue culture plate. To each well was added a 100 μl volume of test compound dissolved in tissue culture medium (or medium without test compound as a is control) to achieve the desired final concentration and the cells were incubated at 37° C. for 1 hour. A frozen culture of HIV-1 was diluted in culture medium to a concentration of 5×10^4 TCID50 per ml (TCID50=the dose of virus that infects 50% of cells in tissue culture), and a 20 μL volume of the virus sample (containing 1000 TCID50 of virus) was added to wells containing test compound and to wells containing only medium (infected control cells). Several wells received culture medium without virus (uninfected control cells). Likewise, the intrinsic toxicity of the test compound was determined by adding medium without virus to several wells containing test compound. In summary, the tissue culture plates contained the following experiments:
(§2) In experiments 2 and 4 the final concentrations of test compounds were 1, 10, 100 and 500 μg/ml. Either azidothymidine (AZT) or dideoxyinosine (ddI) was included as a positive drug control. […] DMSO was added to all control wells at an appropriate concentration.
(§3) Following the addition of virus, cells were incubated at 37° C. in a humidified, 5% CO2 atmosphere for 7 days. Test compounds could be added on days 0, 2 and 5 if desired. On day 7, post-infection, the cells in each is well were resuspended and a 100 μl sample of each cell suspension was removed for assay. A 20 μL volume of a 5 mg/ml solution of 3-(4,5-dimethylthiazol-2-yl)-2,5-diphenyltetrazolium bromide (MTT) was added to each 100 μL cell suspension, and the cells were incubated for 4 hours at […] in a 5% CO2 environment.
(§4) To each sample was added 100 μl of 10% sodium dodecylsulfate in 0.01 N HCl to lyse the cells, and samples were incubated overnight. The absorbance at 590 nm was determined for each sample using a Molecular Devices microplate reader. Absorbance values for each set of wells is compared to assess viral control infection, uninfected control cell response as well as test compound by cytotoxicity and antiviral efficacy.

CEM cells = test: Intrinsic toxicity of test compound in uninfected CEM cells (MTT); assay type: cell-based; conditions: 7 days
Experimental: as §1, §2, §3, §4

[1] = Table 8, 80 μM substrate, 12.3 nanomolar enzyme, pH 6.4, read-out: IC50
[2] = Human immunodeficiency virus 1, CCRF-CEM, 168 h

## COc1ccc(S(=O)(=O)N(CC(C)C)C[C@@H](O)[C@H](Cc2ccccc2)NC(=O)[C@H](C)C(C)(C)C(=O)OCc2ccccc2)cc1 [Entry 7]
HIV protease; [1]
  IC50: 16 nM

## CC(C)CCN(C[C@@H](O)[C@H](Cc1ccccc1)NC(=O)[C@H](C)C(C)(C)C(N)=O)S(=O)(=O)c1ccccc1 (single isomer, unassigned) [Entry 2]
HIV-1; [2]
  EC50: 9 nM
CEM cells; human
  TD50: 60,000 nm

## COc1ccc(S(=O)(=O)N(CC(C)C)C[C@@H](O)[C@H](Cc2ccccc2)NC(=O)[C@H](C)C(C)(C)C(N)=O)cc1 [Entry 9]
HIV protease; [1]
  IC50: 2 nM

## CC(C)CN(C[C@@H](O)[C@H](Cc1ccccc1)NC(=O)[C@H](C)C(C)(C)C(=O)O)S(=O)(=O)c1ccccc1 [Entry 3]
HIV protease; Table 9, enzyme assay
  IC50: 1 nM
HIV-1; [2]
  EC50: 42 nM
CEM cells; human
  TD50: 220,000 nm

## CC(C)CN(C[C@@H](O)[C@H](Cc1ccccc1)NC(=O)[C@H](C)C(C)(C)C(=O)OCc1ccccc1)S(=O)(=O)c1ccccc1 [Entry 4]
HIV protease; [1]
  IC50: 34 nM

## CC(C)CN(C[C@@H](O)[C@H](Cc1ccccc1)NC(=O)[C@H](C)C(C)(C)C(N)=O)S(=O)(=O)c1ccccc1 [Entry 4]
HIV-1; [2]
  EC50: 5 nM
CEM cells; human
  TD50: 62,000 nm

## CC(C)CCN(C[C@@H](O)[C@H](Cc1ccccc1)NC(=O)[C@H](C)C(C)(C)C(=O)O)S(=O)(=O)c1ccccc1 (single isomer, unassigned) [Entry 2]
HIV protease; [1]
  IC50: 2 nM

## CC(C)CN(C[C@@H](O)[C@H](Cc1ccccc1)NC(=O)[C@H](C)C(C)(C)C(=O)O)S(=O)(=O)c1ccccc1 [Entry 5]
HIV protease; [1]
  IC50: 1 nM

## CC(C)CCN(C[C@@H](O)[C@H](Cc1ccccc1)NC(=O)[C@H](C)C(C)(C)C(N)=O)S(=O)(=O)c1ccccc1 (single isomer, unassigned) [Entry 3]
HIV protease; [1]
  IC50: 2 nM

## COc1ccc(S(=O)(=O)N(CC(C)C)C[C@@H](O)[C@H](Cc2ccccc2)NC(=O)[C@H](C)C(C)(C)C(=O)O)cc1 [Entry 8]
HIV protease; [1]
  IC50: 2 nM

## CC(C)CCN(C[C@@H](O)[C@H](Cc1ccccc1)NC(=O)[C@H](C)C(C)(C)C(=O)OCc1ccccc1)S(=O)(=O)c1ccccc1 (relative stereo) [Entry 1]
HIV protease; [1]
  IC50: 80 nM

## COc1ccc(S(=O)(=O)N(CC(C)C)C[C@@H](O)[C@H](Cc2ccccc2)NC(=O)[C@H](C)C(C)(C)C(=O)O)cc1 [Entry 5]
HIV-1; [2]
  EC50: 27 nM
CEM cells; human
  TD50: 200,000 nm

## Butanediamide, N^4-[2-hydroxy-3-[(3-methylbutyl)(phenylsulfonyl)amino]-1-(phenylmethyl)propyl]-2,2,3-Trimethyl-, [1S-[1R*(S*),2S*]]- [Table 8 Entry 3]
HIV protease; [1]
  IC50: 2 nM
HIV protease; Table 9, enzyme assay, read-out: IC50
  IC50: 2 nM
HIV-1; Table 9, CEM cells acutely infected with HIV-1, 7 days, read-out: EC50
  EC50: 5 nM
CEM cells; Table 9, CEM cells without virus
  TD50: 58,000 nm

## CC(C)CCN(C[C@@H](O)[C@H](Cc1ccccc1)NC(=O)[C@H](C)C(C)(C)C(=O)O)S(=O)(=O)c1ccccc1 (single isomer, unassigned) [Entry 1]
HIV-1; [2]
  EC50: 15 nM
